Results taken from US20030190368A1, “METHODS OF DIAGNOSIS AND TRIAGE USING CELL ACTIVATION MEASURES” (priority 1998, published 2003).

Legend:
Format in all cases: cell-based
human neutrophils [1] = assay: Lucigenin-enhanced superoxide chemiluminescence of human plasma / isolated neutrophils; conditions: for superoxide chemiluminescence of isolated neutrophils alone (no plasma): neutrophils in PBS, fMLP 10^-6 M, PAF 10^-6, homogenate 1 ml; for chemiluminescence in cell-free plasma: plasma filtered 1 um; for plasma chemiluminescence activation by pancreatic proteases: trypsin 1000 U/ml, chymotrypsin 100 U/ml, 155×10^3 neutrophils/ml plasma
Procedure: Human blood was collected in heparinized Vacutainer tubes (10 ml) and centrifuged at 500 G for 10 minutes. Plasma was collected and 3 ml were mixed with lucigenin (N,N′-dimethyl-9,9′-bisacridinium […]) (Sigma Chemical CO., St. Louis, Mo.) (1 ml of a 1 mM stock solution in deinozed water, final concentration […], near optimal concentration as determined by Ohoi, et al (26)) for each measurement in small petri dishes (60 mm diameter). In later modifications of the test, a 25 mm diameter polyurethane disk was placed inside the petri dishes to reduce the vessel diameter, and subsequently, the reagent requirements to 1 ml plasma mixed with 0.75 ml lucigenin (1 mM stock solution) and only 100 μl of an activator. […] Six Vacutainer tubes were normally collected from healthy volunteers. This volume gives approximately 8 measurements using the original configuration (3 ml plasma/measurement) and up to 25 measurements with the modified system (1 ml/measurement). When measuring whole blood samples, 3 ml of whole blood were subsitituted for 3 ml of plasma.
A standard neutrophil isolation procedure was used as described in Example 2 or pseudopod formation tests. Human blood from healthy volunteers (approximately 60 ml) was collected in heparinized Vacutainer tubes and transferred to a 60 ml syringe where it was sedimented on ice for 40-60 minutes. It is important that heparin and not EDTA ([…]) be used as an antocoagulant, since the calcium-chelating properties of EDTA can suppress neutrophil activation. The neutrophil-rich plasma layer was collected and layered onto 3.5 ml Histopaque (Sigma Diagnostics, St. Louis, Mo.) in 12 ml polypropylene centrifuge tubes (17×100 mm, Falcon, Shrewsbury, Mass.) and centrifuged at 600 G for 20 minutes. The sedimented neutrophils and red blood cells were then gently resuspended in 2 ml PBS (phosphate buffer solution). The resuspeneded cells were carefully layered onto 2.5 ml of a 55% isotonic Percoll solution (Sigma Diagnostics, St. Louis, Mo.) and 2.5 ml of a 74% isotonic Percoll solution in deionized water. This suspension was centrifuged at 600 G for 15 minutes and the middle granulyte layer was removed and resuspended in PBS to achieve a concentration of 10^6 neutrophils/ml.
For standard plasma measurements (e.g., low molecular weight fractions and whole pancreatic homogenates) human blood from healthy volunteers (approximately 60 ml) was collected in heparinized Vacutainer tubes and centrifuged for 10 minutes at 500 g. The plasma layer, including the buffy coat was carefully decanted using a steril transfer pipette. This fraction was then warmed to room temperature and plasma measurements were obtained. Plasma was diluted with sterile saline to achieve a plasma neutrophil concentration of 120×10^3 neutrophil/ml.
For experiments with different plasma concentrations versus neotrophil activators, measurements were made using isolated neutrophils, isolated neutrophils in 10% and 30% autologous plasma, and neutrophil-free plasma (filtered with 1 um filter and verified by cell count).
Cell-free plasma was obtained by filtering sedimented plasma through a 1 um filter (Whatman 6780-2510, Swedesboro, N.J.). The filtered plasma was visually verified to be cell free by placing an aliquot on a microscope slide and examining in detail at 400×. For experiments with different percentages of added plasma, 5 ml total volumes were made consisting of 1 ml lucigenin (1 mM), 1 ml activator, and either 3 ml suspended neutrophils, 2 ml suspended neutrophils plus 1 ml cell-free plasma mixed in PBS necessary for either 10% or 30% total plasma concentration, or 3 ml cell-free plasma. Activators (1 ml) were added via an injection port to the mixture at time t=0 seconds. […]

[2] = test system: isolated naive human neutrophils; assay: Pseudopod formation test: protease inhibitors against pancreatic homogenate-induced neutrophil activation; conditions: for percent neutrophil pseudopod formation (activation) by rat pancreatic homogenate in presence of protease inhibitor: neutrophils preincubated 10 min with inhibitor (PMSF 1 mM; Complete 1 tablet/20 ml; Benzamidine 1150 μM; Futhan 0.1 mg/ml; aprotinin 20 μM), then homogenate 10 min, homogenate alone 85.1±11.5%
Procedure: (§1) For the pseudopod assay, venous blood is collected in heparinized tubes from healthy human volunteers and put on ice. It is important that heparin and not EDTA ([…]) be used as an anticoagulant, as the calcium-chelating properties of EDTA can affect neutrophil activation. […] Other chemicals for the Krebs-Henseleit buffer are from Fisher Scientific, Fair Lawn, N.J. The resuspended cells are then gently layered onto 2.5 ml of a 55% isotonic Percoll (Sigmal Chemical Company) solution and 2.5 ml of a 74% isotonic Percoll solution in deionized water. The suspension is centrifuged for 15 minutes at 600 G and the middle granulocyte layer is removed and resuspended in PBS to achieve a concentration of 10^6 neutrophils/ml. 100 μl aliquots of suspended neutrophils are added to 100 μl of test plasma or activating agent. This mixture is mixed and then incubated for 10 minutes at 27° C. After incubation 100 μl of 3% glutaraldehyde (Fisher Scientific) is added to stop the reaction. 100 μl of crystal violet in phosphate (pH: 7.4) buffer is then added to stain leukocyte nuclei on wet mount preparations. Freely suspended neutrophils with pseudopodia are identified by their segmented nuclei and the presence of cytoplasmic granules. One hundred neutrophils are counted. Cells with pseudopod projection greater than about 1 um are considered positive.
Rat homogenate was collected as described in detail in Example 5. Briefly, male Wistar rats (250-350 gm) were housed in a controlled environment and maintained on a standard pellet diet for at least three days before initiation of experimental procedures. Animals were cannulated via the femoral arteries and vein under general anesthesia using pentobarbital (50 mg/kg i.m.). The rats were exsanguinated and the heart, liver, spleen, small intestine, and pancreas removed. The organs were immediately washed and cleaned in cold 0.25 M sucrose solution. Then, the cleaned organs were vigorously homogenized in Krebs-Henseleit solution ([…]). Aliquots were filtered by centrifugation at 500 G for 10 min. Pancreatic homogenates were incubated for 2.5 hours at 38° C., stirred frequently. Incubated pancreatic homogenate as well as controls were tested against naive human donor neutrophils for pseudopod formation as described in Example 2.
To determine whether or not neutrophil activation by pancreatic homogenate is protease dependent, the pseudopod formation test was repeated by preincubation of isolated neutrophils with various protease inhibitors (50 μl) for 10 minutes followed by addition of pancreas homogenate (50 μl) and further incubation for 10 minutes. […] All protease inhibitors were the gift of Dr. Tony E. Hugli of The Scripps Clinic and Research Institute, with the exception of Complete™, an all-purpose protease inhibitor purchased from Boehringer Mannheim, Indianapolis, Ind. One of the components of Complete™ is EDTA (ethylenediaminetetra-acetic acid), a standard anti-coagulant and divalent cation chelator.
To determine whether the protease inhibitors were acting on the pancreatic homogenate or the neutrophils themselves, a new set of neutrophil pseudopod experiments was carried out. […] Appropriate controls were recorded as well as a positive control (10^−7 M fMLP) to determine the washed cells' ability to respond to stimuli. Formyl-methionyl-leucyl-phenylalanine (fMLP) was obtained from Sigma Chemical Company, St. Louis, Mo.

human neutrophils [3] = assay: Neutrophil PAF inhibition experiments (pseudopod formation)
[4] = test system: isolated naive human neutrophils; assay: Pseudopod formation test: neutrophil activation by organ homogenates, fractions and proteases; conditions: for percent pseudopod formation, control solution incubated with the additive alone (no organ homogenate): Krebs-Henseleit control incubated with additive at the same concentration, control activation 10.5±2.5%; for direct neutrophil activation by proteases / zymogen fragments (in words): pseudopod formation
Procedure: as §1
The organ homogenization procedure was similar to the method of Lefer (Glenn et al. (1971) Circ Res 29:338-349, Lefer (1973) Am J. Physiol 224:824-831). Male Wistar rats (250-350 gm) were housed in a controlled environment and maintained on standard pellet diet for at least three days before initiation of experimental procedures. Animals were cannulated via the femoral arteries and vein under general anesthesia using phenobarbital (50 mg/kg i.m.) No heparin was injected other than that needed to ensure open catheter lines (10 U/ml plasma-Lyte). A central incision was made over the abdomen. The rats were exsanguinated and the heart, liver, spleen, small intestine, and pancreas were removed. In two animals a kidney and adrenal gland were removed as well. They were immediately washed and cleaned in cold 0.25 M sucrose solution. The cleaned organs were vigorously homogenized in Krebs-Henseleit solution (1:3 w/v). Homogenate was then further diluted in Krebs-Henseleit solution (1:2 v/v). Aliquots were filtered by centrifugation at 500 G for 10 min and a sample aliquot was stored at 4° C. until assayed. The other fraction was incubated for 2.5 hours at 38° C. with mild stirring and stored at 4° C. until assayed. Incubation of tissue homogenates for this time period at a moderate temperature enhances any enzymatic activity that may be necessary in order to produce a neutrophil activation product. The incubated and non-incubated organ homogenates as well as controls were tested against naive human donor leukocytes for pseudopod formation tests and on whole rat donor blood for the NBT assay. Pseudopod determination was carried out as described in Example 2 using isolated neutrophils in D-PAS combined with homogenate in a 4:1 ratio. Nitroblue tetrazolium reduction by leukocytes due to superoxide in rat homogenate assays was also tested using the NBT procedure described in Example 2, with the application of 25 μl of homogenate to donor blood. The NBT assays for porcine homogenate activity were measured using the slightly modified NBT protocol with the crystal violet stain, also detailed in Example 2. […]

Molecule: 1-O-alkyl-2-acetyl-sn-glycero-3-phosphocholine [PAF]
- superoxide chemiluminescence of isolated neutrophils alone (no plasma) (human neutrophils [1]): likewise unreactive
- chemiluminescence in cell-free plasma (human neutrophils [1]): unreactive

Molecule: N=C(N)c1ccccc1 [Benzamidine]
- percent neutrophil pseudopod formation (activation) by rat pancreatic homogenate in presence of protease inhibitor [2]: 41.5±24.6%

Molecule: O=S(=O)(F)Cc1ccccc1 [PMSF, Phenylmethylsulfonyl fluoride]
- percent neutrophil pseudopod formation (activation) by rat pancreatic homogenate in presence of protease inhibitor [2]: 40.8±12.9%

Molecule: Cc1nnc2n1-c1sc3c(c1C(c1ccccc1Cl)=NC2)CC(C(=O)N1CCOCC1)C3 (centres unmarked) [WEB 2170]
- reduction of neutrophil activation by pancreatic or trypsin-incubated homogenates (human neutrophils [3]; 5 μM, 50 μM, 500 μM): largely ineffective

Molecule: CSCC[C@H](NC=O)C(=O)N[C@@H](CC(C)C)C(=O)N[C@@H](Cc1ccccc1)C(=O)O [fMLP, Formyl-methionyl-leucyl-phenylalanine]
- superoxide chemiluminescence of isolated neutrophils alone (no plasma) (human neutrophils [1]): not particularly reactive
- chemiluminescence in cell-free plasma (human neutrophils [1]): unreactive
- percent activation of twice-washed neutrophils by activator ([2]; no inhibitor, pancreatic homogenate 50 μl (Control group) or fMLP 10^-7 M (positive control)): 74%

Molecule: Phospholipase A2: from bovine pancreas, also degrades PAF
- intrinsic effect on neutrophils (human neutrophils [3]; 1, 10, 20 U/ml): neutrophil stimulatory properties

Molecule: aprotinin
- percent neutrophil pseudopod formation (activation) by rat pancreatic homogenate in presence of protease inhibitor [2]: 51±17.2%

Molecule: chymotrypsin
- plasma chemiluminescence activation by pancreatic proteases (human neutrophils [1]): little activation
- percent pseudopod formation, control solution incubated with the additive alone (no organ homogenate) [4]: 42%
- direct neutrophil activation by proteases / zymogen fragments (in words) [4]: did not result in neutrophil activation

B1: trypsin: serine protease, Type 11-S from porcine pancreas (protein, UniProt P00761 9-231, looked up)
Trypsin: IVGGYTCAANSIPYQVSLNSGSHFCGGSLINSQWVVSAAHCYKSRIQVRLGEHNIDVLEGNEQFINAAKIITHPNFNGNTLDNDIMLIKLSSPATLNSRVATVSLPRSCAAAGTECLISGWGNTKSSGSSYPSLLQCLKAPVLSDSSCKSSYPGQITGNMICVGFLEGGKDSCQGDSGGPVVCNGQLQGIVSWGYGCAQKNKPGVYTKVCNYVNWIQQTIAAN
- plasma chemiluminescence activation by pancreatic proteases (human neutrophils [1]): little activation
- percent pseudopod formation, control solution incubated with the additive alone (no organ homogenate) [4]: 8.5±0.8%
- direct neutrophil activation by proteases / zymogen fragments (in words) [4]: did not result in neutrophil activation

B2: trypsinogen: trypsin precursor from bovine pancreas (protein, UniProt P00760 18-246, looked up)
pro-form: VDDDDKIVGGYTCGANTVPYQVSLNSGYHFCGGSLINSQWVVSAAHCYKSGIQVRLGEDNINVVEGNEQFISASKSIVHPSYNSNTLNNDIMLIKLKSAASLNSRVASISLPTSCASAGTQCLISGWGNTKSSGTSYPDVLKCLKAPILSDSSCKSAYPGQITSNMFCAGYLEGGKDSCQGDSGGPVVCSGKLQGIVSWGSGCAQKNKPGVYTKVCNYVSWIKQTIASN
modifications: pro-form
notes: trypsin precursor from bovine pancreas
- direct neutrophil activation by proteases / zymogen fragments (in words) [4]: not stimulatory towards neutrophils
